The record followed here is PubChem BioAssay (NCI).

What all share (experiment): NCI tumour cell line growth inhibition, 48 h
Experiment [1] relates to CCRF-CEM leukemia.
The subject of experiment [2] is HCC-2998 colon.
Experiment [3] has as its system LOX IMVI melanoma.
Experiment [4] relates to MALME-3M melanoma.
Experiment [5] has as its system NCI-H226 lung.
Experiment [6] relates to OVCAR-3 ovarian.
Experiment [7] has as its system PC-3 prostate.
Experiment [8] deals with RXF 393 renal.
Experiment [9] concerns SF-295 CNS.
In experiment [10] the test system is SN12C renal.

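Interpolation was linear, between the two tested concentrations surrounding the appropriate level; five concentrations were tested over 48 hours in 96-well plates. TGI: concentration producing complete growth inhibition.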 A value given as a limit tells only on which side of the number the result lay.

For the compound `O=C(/C=C(\O)c1ccccc1)/C(=C/C(=O)c1ccccc1)NN=C(c1ccccc1)c1ccccc1`, the TGI in [1] is 54.7 µM; in [2], 58.7 µM; in experiment [3] it was > 100 µM; in experiment [4] it was > 100 µM; in experiment [5] it was 72.7 µM; in experiment [6] it was 67.1 µM. Further, the TGI in experiment [7], in experiment [8], in [9] and in [10] was > 100 µM each time.

As to `S=C(N/N=C\c1ccccn1)N(Cc1ccccn1)Cc1ccccn1`, the TGI in experiment [1] was > 100 µM; in [2], > 43.1 µM; in [3] it was 12.6 µM; in experiment [4], 16.9 µM; in experiment [5], 1.78 µM; in experiment [6], > 48.7 µM. The TGI in [7] was determined as 32.9 µM; in experiment [8] it was 32.2 µM; in experiment [9] it was 16.3 µM; in [10], 25.7 µM.

Consider `O/N=C1/C2CC3CC1(c1ccccc1)CC(/C3=N/O)/C2=N\O` (stereo not given), for which the TGI in experiment [1], in [2], in [3], in [4], in [5] and in experiment [6] was > 100 µM each time. For the same compound, the TGI in experiment [7], in experiment [8], in experiment [9] and in [10] was > 100 µM in each case.
